We go through two compounds from patent US20140314904A1, “PRE-SLAUGHTER DIET INCLUDING METHIONINE” (ADISSEO FRANCE S.A.S., priority 2011, published 2014).

Common to all, as to type: in vivo, pig
In one assay the test system is slaughter pigs. Briefly: Free protein thiol (protein oxidation, Ellman's reagent). Particulars: for Level of free thiol (protein oxidation): 7 days at 2° C., LS mean ± SEM; for Decline of level of free thiol from storage without oxygen to high-oxygen MAP: vacuum versus MAP. The protocol:
In Example 1 twenty-one pigs were randomly assigned to one of three feeding groups (n=7). The control group received a standardized diet only. The DLM and HMTBA groups received the standardized diet plus a high-methionine supplement (either DLM (i.e. […] At 48 h post mortem, 3 cm thick pork chops were either vacuum packed or sealed in a modified atmosphere (MA; 80% O2) and stored for an additional 7 days at 2° C. Instrumental hardness was measured using the Warner-Bratzler shear force (WBSF; Newton) method. Protein oxidation was measured as the loss of free thiol groups in proteins (nmol thiol per mg protein) using Ellman's reagent. Lipid oxidation was measured as the increase in 2-thiobarbituric acid reactive substances (TBARS; mg malondialdehyde per kg meat). Twenty-one slaughter pigs ([Yorkshire×Swedish Landrace]×Hampshire) were raised on a commercial diet. Pigs were randomly assigned to one of three groups (n=7). […] Pork chops were cut perpendicular to the long axis of each LD muscle. Six 3 cm thick pork chops was sliced from each LD. Three were vacuum packed and three were packed in a high-oxygen modified atmosphere. The chops were placed in plastic trays ([…]-43A white/PS; 195×144×43 mm in dimension; Frch Plast, Denmark) and placed in vacuum bags (EM-628862; […] The ambient air was removed from all vacuum bags using a vacuum machine (type, manufacturer, country). […] (until 9 days post mortem). The gas composition was checked (CheckMate 9900, PBI Dansensor, Denmark) before packaging and again prior to opening, at the end of the simulated display period in order to check for leakage. The oxygen-enriched environment was well maintained (83.4%) throughout the display period for all MA packages. […] In brief, the frozen pork samples were partially thawed at chill storage temperature for 30 minutes. Fat and connective tissue was removed and 1.0 g of lean meat was homogenised in 25 ml of 5.0% SDS (sodium dodecyl sulphate) in 0.10 M Tris ([…]) buffer, pH 8.0 using an Ultra Turrax (Ultra Turrax T-25, Janke & Kunkel IKA-Labortechnik, Germany). The homogenates were placed in a water bath at 80° C. for 30 minutes, and subsequently cooled and filtered. The protein concentration was determined spectrophotometrically (Helios Omega Single Beam UV-VIS, Fisher Scientific Biotech Line, Denmark) at a wavelength of 280 nm using a standard curve prepared from bovine serum albumin (BSA). […] Filtrate (25 μl), Tris buffer (100 μl) and DTNB (25 μl) were added to wells in a 96 well microtiter plate. The absorbance at 410 nm was measured before addition of DTNB (ABS410meat) and after reaction with DTNB (ABS410meat+DTNB). In addition, the absorbance of a blank solution (25 μl 5% SDS dissolved in 100 mM Tris buffer and 100 μl 0.10 M Tris buffer) was likewise measured at 410 nm. After addition of DTNB, the microtiter plate was stored in the dark and the absorbance was measured exactly 30 minutes later. The absorbance corresponding to the thiol concentration in the sample was CorrABS410=ABS410meat+DTNB-ABS410meat-ABS410blank. […] The concentration of free thiol groups was determined as nmol thiol per mg protein. Duplicate homogenates, and triplicate measurements on each homogenate, were made for each meat sample and the mean values were used for further statistical analysis.
(DTNB colorimetry detects thiols as they appear.)

In assay [1] the test system is pigs. Briefly: Shear force (maximum load) after storage, Example 2. Particulars: 9 days post mortem, P < 0.02. The protocol:
(§1) The pigs were slaughtered at a commercial slaughter house in Sweden after a resting time of 5 h. At 45 minutes post mortem, pH (Knick portamess 751) and temperature (digital thermometer, Weber) were measured in the M. longissiumus dorsi at the level of the 10th rib. At 48 h post mortem, the entire loins were dissected from the carcasses and transported to the University of Copenhagen for further measurements. Ultimate pH was measured, as well as colour by Minolta L*a*b*. Dry matter content was determined by drying muscle samples at 105° C. for 24 h. Slices of 3 cm thickness were cut, measured and vacuum packed before being stored for a further 7 days at 2° C. At the end of the storage period samples were heated to an internal temperature of 75° C. After being cooled down, samples were stored cold at 2° C. until they were cut into slabs of 1 cm×1 cm×2.5 cm size for shear force measurement. For each animal, 8 specimens were measured and the mean maximum load was used for further analysis.

The test system of assay [2] is pigs. Description: Colour by Minolta L*a*b*, Example 2. As to conditions: Laboratory, 2 days post mortem. The protocol: as §1

In the case of `CSCCC(N)C(=O)O` (racemic) [DLM, DL-methionine], the “Level of free thiol (protein oxidation)” value in the assay with slaughter pigs (MAP (80% O2 + 20% CO2)) was 56.27 ± 1.13 ^B nmol thiol/mg protein. Further, the “Level of free thiol (protein oxidation)” value with slaughter pigs (Vacuum) is recorded as 62.16 ± 1.19 ^A nmol thiol/mg protein. Also, the “Decline of level of free thiol from storage without oxygen to high-oxygen MAP” value with slaughter pigs was found to be 6.0 units. Moreover, the “Maximum Load” value in the assay with pigs [1] is 34 N. In addition, in the assay on pigs [2], the “Colour Minolta L*” value worked out at 55.75 units, the “Colour Minolta a*” value was found to be 6.69 units and the “Colour Minolta b*” value was determined as 2.92 units.
Take `CSCCC(O)C(=O)O` (racemic) [HMTBA, 2-hydroxy-4-(methylthio) butanoic acid]: in the assay with slaughter pigs (MAP (80% O2 + 20% CO2)), the “Level of free thiol (protein oxidation)” value is recorded as 59.15 ± 1.13 ^A, B nmol thiol/mg protein. Also, the “Level of free thiol (protein oxidation)” value in the assay on slaughter pigs (Vacuum) is 62.60 ± 1.13 ^A nmol thiol/mg protein. The “Decline of level of free thiol from storage without oxygen to high-oxygen MAP” value with slaughter pigs came to 3.5 units. Moreover, the “Maximum Load” value in the assay on pigs [1] worked out at 37 N. Also, in the assay on pigs [2], the “Colour Minolta L*” value came to 56.89 units, the “Colour Minolta a*” value is given as 7.58 units and the “Colour Minolta b*” value is on record as 3.71 units.
